Laboratory results taken from PMC12518693, “Potent Fluorescent Probe for Target‐Engagement Studies of Allosteric Pyruvate Kinase Modulators” (Angewandte Chemie (International Ed. in English), 2025).

Legend:
[1] = molecular target: PKLNluc (Homo sapiens, UniProt P30613); test: NanoBRET with recombinant PKLNluc; conditions: tracer IV 100 nM, 450/550 nm, ± mitapivat
Method: Due to the low quantum yield of SBD‐containing IV (Table S1), we optimized the plate reader settings for the NanoBRET assay to maximize the signal‐to‐background (S/B) ratio. The fluorescence excitation spectrum of tracer IV overlapped with the emission band of PKLNluc (Figure 5a), prompting the screening of wavelength pairs within 400–600 nm.
The donor/acceptor wavelength pairs were recorded at 450/470 nm, 550/510 nm, 450/530 nm, 450/550 nm, 450/610 nm, 450/630 nm and 400/470 nm respectively. For each sample well, BRET ratios were calculated using the following formula:
BRET ratio mBU= AcceptorSDonorS-AcceptorNTDonorNT
Where AcceptorS is the luminescence intensity (FI) of the sample well at 550 nm, DonorS is the FI of the sample well at 450 nm, and AcceptorNT and DonorNT are the FI of the no-tracer control at 550 nm and 450 nm respectively.

[2] = system: HEK293 cells; test: Photostability in HEK293 cells under continuous 488 nm irradiation; type: cell-based; conditions: HEK293, 1 µM, 2 h, continuous 488 nm scanning 10 min
Method: Photostability of tracer IV was subsequently evaluated by treating HEK293 cells with the tracer (1 µM) for 2 h, followed by continuous scanning using 488 nm laser excitation for 10 min.
Figure S7. Photobleaching curve of compound IV (1 µM) in HEK293 cells under continuous laser irradiation. HEK293 cells were exposed to continuous excitation at 488 nm for 10 minutes using the same imaging settings as applied throughout this study. Integrated fluorescence intensity was recorded over time from an identical region of interest (ROI) across the time-lapse images to assess photostability.

[3] = molecular target: T1, PKM2 (Homo sapiens, UniProt P14618); test: Native PAGE in-gel fluorescence, PKM2; type: binding; set-up: made in house
Method: (§1) To study the interaction of IV with PKLNluc and its oligomers, native PAGE was performed (Figure 4). Recombinant PKLNluc was incubated for 2 h with IV (0.15–10 µM) or DMSO and loaded onto gels. […] Colloidal blue staining and western blotting with anti‐PKL antibodies confirmed the predominance and identity of the bands (Figure S11a,d). […] PKM2 and PKL exist in equilibrium between oligomeric states, with PKM2 mainly dimeric when unbound.^[ [18] ^] As oligomerization regulates PK function,^[ [11], [54] ^] PKLNluc oligomerization was compared to PKLwt and PKM2 (Figure 4b,c). […] Colloidal blue and anti‐PKM2 blots confirmed PKM2 was mostly monomeric, explaining the lack of binding (Figure S11).
Given that FBP levels vary widely in cells,^[ [55], [56], [57] ^] and that it binds PKL with nanomolar affinity, ^[ [58] ^] IV binding to PKLwt was tested with and without FBP.
Recombinant PKLNLuc (4 x 950 ng) was incubated for 1 hour at ambient temperature with different concentrations of compound IV in a total volume of 60 µL Tris-HCl buffer pH 7.4 (50 mM Tris, 100 mM KCl, 10 mM MgCl2, 0.05% Tween 20). […]
(§2) A ChemiDoc imager (Bio-Rad, Alexa 488 filter) was used for fluorescence detection of compound IV bound to the proteins. […] The images of the in-gel fluorescence and luminescence detection were superimposed. […]

[4] = molecular target: PKL (Homo sapiens, UniProt P30613); test: HepG2 PKM2 KO cell lysate PKL activity assay; conditions: HepG2 PKM2 KO cells, 48 h, mean ± SE n=3
Method: These predominantly express PKL.
HepG2 PKM2 KO cells (Synthego) were plated in 6 well plates at cell densities of 2 x 10^5 cells/well and incubated for 24 h at 37 °C and 5% CO2. Compounds were added to the cells in different concentrations (0.1, 1, 10 µM) and the cells were further incubated for 48 h. The control cells received DMSO as vehicle.
Cells were washed with PBS, lysed on ice with 200 µL/well PK assay buffer. […] Pyruvate kinase (PK) activity of the cell lysates (10 µg total protein) was analyzed by using the PK assay kit from abcam (ab83432) according to manufacturer´s instructions. The PKL activity in the cell lysates treated with the compounds was expressed as a percentage of the PK activity in the vehicle.

[5] = molecular target: T1, PKM2; test: Recombinant PKM2 activity assay (Kinase-Glo MAX); type: biochemical; set-up: made in house
Method: As these compounds were binding to a known allosteric site on PK, the effects of ligands I–IV on the enzymatic activities of PKL and PKM2 were determined (Figure S2). The two isozymes were incubated with increasing concentrations of compounds before the addition of substrates PEP and adenosine diphosphate (ADP), and the reactions were monitored using a Kinase‐Glo MAX assay.
Figure S2. Effects of ligands I-IV on recombinant PK activities. PKL or PKM2 (10 nM) were pre-incubated with the compounds (0-100 µM) for 15 min following the addition of PEP (0.1 mM) and ADP (0.2 mM). The reactions were terminated by the addition of Kinase Glo-MAX reagent after 10 min, and the luminescence from each reaction was quantified using a plate reader. The activity values are expressed as a percentage of PK activity of the DMSO control. The potencies were calculated by best fit of the Hill equation to the luminescence data.^[2] (A) PKL titrations. (B) PKM2 titrations. Error bars represent the ±SE of replicates (n = 3).

[6] = system: PKLNluc and PKLwt; test: Native PAGE in-gel fluorescence, PKLNluc and PKLwt; type: binding, human; conditions: IV 2.5 or 10 µM
Method: as §1
Recombinant PKLNLuc (4 x 950 ng) was incubated for 1 hour at ambient temperature with different concentrations of compound IV in a total volume of 60 µL Tris-HCl buffer pH 7.4 (50 mM Tris, 100 mM KCl, 10 mM MgCl2, 0.05% Tween 20). PKM2 and PKL recombinants (2 x 950 ng) were also incubated for 1 hour at ambient temperature with different concentrations of the compound IV (0, 2.5 and 10 µM). […]
as §2

T1 sequence (P14618 whole entry): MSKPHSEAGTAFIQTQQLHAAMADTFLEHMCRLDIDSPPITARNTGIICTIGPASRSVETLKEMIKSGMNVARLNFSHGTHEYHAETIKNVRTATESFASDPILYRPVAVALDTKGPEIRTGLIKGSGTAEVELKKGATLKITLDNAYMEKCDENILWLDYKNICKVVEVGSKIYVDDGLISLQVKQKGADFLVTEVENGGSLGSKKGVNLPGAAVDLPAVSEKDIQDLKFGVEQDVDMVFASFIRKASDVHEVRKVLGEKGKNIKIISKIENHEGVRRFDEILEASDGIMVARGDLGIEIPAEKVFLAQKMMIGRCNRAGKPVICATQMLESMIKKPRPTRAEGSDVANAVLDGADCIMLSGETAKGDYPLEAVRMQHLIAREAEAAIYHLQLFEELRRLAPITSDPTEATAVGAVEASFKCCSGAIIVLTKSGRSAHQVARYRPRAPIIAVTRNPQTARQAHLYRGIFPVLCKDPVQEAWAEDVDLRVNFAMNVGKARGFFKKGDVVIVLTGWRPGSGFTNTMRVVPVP
PKL, sequence (P30613 1-543 isoform P30613-2): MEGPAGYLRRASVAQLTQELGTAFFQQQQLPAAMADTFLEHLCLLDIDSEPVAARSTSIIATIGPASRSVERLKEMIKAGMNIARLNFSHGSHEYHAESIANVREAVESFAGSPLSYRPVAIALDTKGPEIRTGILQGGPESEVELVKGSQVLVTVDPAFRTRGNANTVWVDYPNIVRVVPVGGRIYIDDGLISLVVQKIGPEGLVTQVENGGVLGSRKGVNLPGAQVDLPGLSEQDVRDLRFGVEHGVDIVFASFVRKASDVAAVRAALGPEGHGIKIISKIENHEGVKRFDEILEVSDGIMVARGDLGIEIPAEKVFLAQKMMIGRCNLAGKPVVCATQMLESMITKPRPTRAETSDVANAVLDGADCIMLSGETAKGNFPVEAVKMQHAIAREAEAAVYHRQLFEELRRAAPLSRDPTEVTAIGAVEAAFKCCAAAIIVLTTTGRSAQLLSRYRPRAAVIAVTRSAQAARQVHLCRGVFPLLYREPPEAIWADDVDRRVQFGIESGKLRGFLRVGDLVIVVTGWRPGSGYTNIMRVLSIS
PKLNluc, sequence (P30613 1-543 isoform P30613-2): as above

CN(C)c1ccc(S(=O)(=O)c2ccc3c(=O)n(Cc4cc[nH]n4)ncc3c2)c2nonc12 [Compound IV, 2-((1H-Pyrazol-3-yl)methyl)-6-((7-(dimethylamino)benzo[c][1,2,5]oxadiazol-4-yl)sulfonyl)phthalazin-1(2H)-one]
BRET assay window [1]: 39 mBU | decrease of fluorescence intensity [2]: approximately 6% | in-gel fluorescence labeling of PKM2 ([3]; IV 2.5 or 10 µM with FBP 10 µM, PKM2 tetrameric): no fluorescence | in-gel fluorescence labeling of PKM2 ([3]; IV 2.5 or 10 µM, without FBP): no fluorescence was detected | PKL activities (% of vehicle) 0.1 µM ([4]; 0.1 µM): 108 ± 3 % of vehicle | PKL activities (% of vehicle) 1 µM ([4]; 1 µM): 146 ± 4 % of vehicle | PKL activities (% of vehicle) 10 µM ([4]; 10 µM): 242 ± 7 % of vehicle | PKM2 E max ([5]; recombinant PKM2): 449 % of vehicle | EC50 ([5]; recombinant PKM2 10 nM, 15 min pre-incubation, PEP 0.1 mM, ADP 0.2 mM): 17 nM | in-gel fluorescence labeling of oligomers [6]: labeling only of the tetramers | in-gel fluorescence labeling of oligomers ([6]; listed as LumiPK): exclusively to the tetrameric form of PKL
